Common to all, as to format: cell-based
Experiment [1] relates to human peripheral blood mononuclear cells (MCP-1). Briefly: MCP-1 chemokine production by ELISA. The protocol:
FIG. 19. High production of anti-infective chemokine MCP-1 by human peripheral blood mononuclear cells treated with peptides, as determined by ELISA after 24 hours of stimulation.
Venous blood (20 ml) from healthy volunteers was collected in Vacutainer® collection tubes containing sodium heparin as an anticoagulant (Becton Dickinson, Mississauga, ON) in accordance with UBC ethical approval and guidelines. Blood was diluted 1:1 with complete RPMI 1640 medium and separated by centrifugation over a Ficoll-Paque® Plus (Amersham Biosciences, Piscataway, N.J., USA) density gradient. White blood cells were isolated from the buffy coat, washed twice in RPMI 1640 complete medium, and the number of peripheral blood mononuclear cells (PBMC) was determined by Trypan blue exclusion. PBMC (5×10^5) were seeded into 12-well tissue culture dishes (Falcon; Becton Dickinson) at 0.75 to 1×10^6 cells/ml at 37° C. in 5% CO2. The above conditions were chosen to mimic conditions for circulating blood monocytes entering tissues at the site of infection via extravasation.
Following incubation of the cells under various treatment regimens, the tissue culture supernatants were centrifuged at 1000×g for 5 min, then at 10,000×g for 2 min to obtain cell-free samples. Supernatants were aliquoted and then stored at −20° C. prior to assay for various chemokines by capture ELISA (eBioscience and BioSource International Inc., CA, USA respectively)

The test system of experiment [2] is Pseudomonas aeruginosa (Pa) biofilm. Briefly: static abiotic solid surface (microtiter, crystal violet) / Bioflux biofilm inhibition screen. The protocol: FIG. 1. Identification of new anti-biofilm peptides active against P. aeruginosa using the microtiter plate screening method with crystal violet staining. […] As a control peptide 1037 was utilized [de la Fuente Nunez et al. 2011].
Methods of assessment of anti-biofilm activity—Biofilm formation was initially analyzed using a static abiotic solid surface assay as described elsewhere (de la Fuente-Nunez et al., 2012). Dilutions (1/100) of overnight cultures were incubated in BM2 biofilm-adjusted medium [62 mM potassium phosphate buffer (pH 7), 7 mM (NH4)2SO4, 2 mM MgSO4, 10 μM FeSO4, 0.4% (wt/vol) glucose, 0.5% (wt/vol) Casamino Acids], or a nutrient medium such as Luria Broth, in polypropylene microtiter plates (Falcon, United States) in the absence (control) or presence of peptide. Peptide was added at time zero (prior to adding the diluted, overnight cultures) in varying concentrations, and the decrease in biofilm formation was recorded at 22-46 h for most bacteria. Planktonic cells were removed, biofilm cells adhering to the side of the tubes were stained with crystal violet, and absorbance at 595 nm was measured using a microtiter plate reader (Bio-Tek Instruments Inc., United States). Some peptides were screened against two Gram negative organisms, P. aeruginosa and K. pneumoniae using a Bioflux apparatus (AutoMate Scientific, Berkeley, Calif.; http://www.autom8.com/bioflux_biofilm.html), which allows for the high-throughput, real-time analysis of biofilms.

Experiment [3] has as its system P. aeruginosa biofilm. The note with it: biofilm. The protocol:
(§1) Methods of assessment of anti-biofilm activity—Biofilm formation was initially analyzed using a static abiotic solid surface assay as described elsewhere (de la Fuente-Nunez et al., 2012). […] Planktonic cells were removed, biofilm cells adhering to the side of the tubes were stained with crystal violet, and absorbance at 595 nm was measured using a microtiter plate reader (Bio-Tek Instruments Inc., United States). Some peptides were screened against two Gram negative organisms, P. aeruginosa and K. pneumoniae using a Bioflux apparatus (AutoMate Scientific, Berkeley, Calif.; http://www.autom8.com/bioflux_biofilm.html), which allows for the high-throughput, real-time analysis of biofilms.

Experiment [4] has as its system S. aureus biofilm. The note with it: biofilm. The protocol: as §1
Experiment [5] has as its system human peripheral blood mononuclear cells (MCP-1). Briefly: SPOT-synthesized derivative screen: production of chemokine MCP-1. The note with it: Table 12A, No LPS. The procedure, abridged:
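MCP-1 was quantified by capture ELISA in cleared culture supernatants of treated human peripheral blood mononuclear cells. Cells came from heparinized volunteer blood via Ficoll gradient and were seeded at 0.75 to 1×10^6 cells/ml (37 °C, 5% CO2).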

Experiment [6] concerns LPS-stimulated human peripheral blood mononuclear cells (IL1-β). The note with it: Table 12A, cells stimulated with 10 ng/ml LPS.

Ends that are not written are not given here. Peptide text beside a SMILES is read from it.

With `CC[C@H](C)[C@H](NC(=O)[C@H](Cc1c[nH]c2ccccc12)NC(=O)[C@H](CCCNC(=N)N)NC(=O)[C@@H](N)CCCNC(=N)N)C(=O)N[C@@H](CCCNC(=N)N)C(=O)N[C@H](C(=O)N[C@@H](C)C(=O)N[C@H](C(=O)N[C@H](C(=O)N[C@@H](CC(C)C)C(=O)N[C@@H](CCCNC(=N)N)C(=O)N[C@H](C(N)=O)C(C)C)[C@@H](C)CC)C(C)C)C(C)C` [HE1], the MCP-1 induction entry in experiment [1] (24 hours of stimulation, lowest peptide concentration 20 μg/ml) is on record as “clearly superior to peptide 1018”.
Turning to RVLIRVARRVIW (RVLIRVARRVIW-NH2) [HE9], in experiment [1], the “Notes (IDR immunomodulatory activity)” value was “Weaker activity than 1018”.
Take `N=C(N)NCCC[C@H](NC(=O)[C@H](CCCNC(=N)N)NC(=O)[C@H](Cc1c[nH]c2ccccc12)NC(=O)[C@H](Cc1c[nH]c2ccccc12)NC(=O)[C@H](CCCCN)NC(=O)[C@H](Cc1c[nH]c2ccccc12)NC(=O)[C@H](Cc1c[nH]c2ccccc12)NC(=O)[C@H](CCCNC(=N)N)NC(=O)[C@@H](N)CCCCN)C(N)=O` [HHC36, reference compound] (H-KRWWKWWRR-NH2; N-terminus assumed): the activity vs. biofilms entry in experiment [2] (statement referring to Table 2) is “completely inactive”.
On to VRLIRVWRVIRK (VRLIRVWRVIRK-NH2) [HE7], for which, in experiment [1], the “Notes (IDR immunomodulatory activity)” value is “No secretion of MCP-1”.
For `CC[C@H](C)[C@H](NC(=O)[C@H](CCCNC(=N)N)NC(=O)[C@H](C)NC(=O)[C@@H](NC(=O)[C@H](CCCNC(=N)N)NC(=O)[C@H](C)NC(=O)[C@H](Cc1c[nH]c2ccccc12)NC(=O)[C@H](CCCNC(=N)N)NC(=O)[C@@H](N)C(C)C)C(C)C)C(=O)N[C@@H](CC(C)C)C(=O)N[C@@H](CCCNC(=N)N)C(=O)N[C@H](C(N)=O)C(C)C` [HE3] (H-VRWARVARILRV-NH2; N-terminus assumed), in experiment [1], the “Notes (IDR immunomodulatory activity)” value is listed as “Weaker activity than 1018”.
Turning to `CC[C@H](C)[C@H](NC(=O)[C@H](CCCNC(=N)N)NC(=O)[C@@H](NC(=O)[C@H](CCCCN)NC(=O)[C@@H](NC(=O)[C@@H](NC(=O)[C@H](Cc1c[nH]c2ccccc12)NC(=O)[C@H](CCCNC(=N)N)NC(=O)[C@@H](N)CCCNC(=N)N)[C@@H](C)CC)C(C)C)C(C)C)C(=O)N[C@@H](CCCNC(=N)N)C(=O)N[C@@H](CCCNC(=N)N)C(=O)N[C@@H](CCCNC(=N)N)C(N)=O` [Peptide 2008] (H-RRWIVKVRIRRR-NH2; N-terminus assumed), the “MBIC50 P. aeruginosa” value in experiment [3] came to 10 µg/mL. Moreover, the “MBIC50 S. aureus” value in experiment [4] was determined as 10 µg/mL. Moreover, in experiment [5], the “Fold increase in MCP1 cf. untreated cells” value is 2146. The “MCP1” value in experiment [5] (background subtracted (21.3 pg/ml)) was 45524 pg/mL. In experiment [6] (1002-2013 compared to LPS control of 889 pg/ml), the “Fold change in IL1β relative to no peptide LPS stimulated cells” value is reported as 0.25. In addition, in experiment [6] (LPS alone 984 pg/ml, starred values (1002-2013) determined separately, LPS alone 889 pg/ml), the “IL1β Production” value came to 250 pg/mL.
Turning to VRFRIWRR (VRFRIWRR-NH2) [EH2], in experiment [1], the “Notes (IDR immunomodulatory activity)” value is reported as “Weaker activity than 1018”.
On to `CC[C@H](C)[C@H](NC(=O)[C@H](CC(C)C)NC(=O)[C@@H]1CCCN1C(=O)[C@H](CCCCN)NC(=O)[C@H](C)NC(=O)[C@@H](NC(=O)[C@@H](NC(=O)[C@@H](NC(=O)[C@@H](NC(=O)[C@H](CCCCN)NC(=O)[C@H](CCCCN)NC(=O)[C@H](C)NC(=O)[C@H](C)NC(=O)[C@H](CO)NC(=O)[C@@H](NC(=O)[C@H](CC(C)C)NC(=O)[C@H](CCCCN)NC(=O)[C@H](CCCCN)NC(=O)[C@@H](NC(=O)[C@H](Cc1ccccc1)NC(=O)[C@H](CO)NC(=O)[C@H](CCCCN)NC(=O)[C@H](Cc1c[nH]c2ccccc12)NC(=O)[C@@H](N)CCCCN)[C@@H](C)CC)[C@@H](C)O)C(C)C)C(C)C)[C@@H](C)O)[C@@H](C)O)C(=O)N[C@@H](CO)C(=O)N[C@@H](CO)C(N)=O` [CP26] (H-KWKSFIKKLTSAAKKVVTTAKPLISS-NH2; N-terminus assumed), for which the “% Biofilm Inhibition Pa” value in experiment [2] (peptide 10 μg/ml) was 62%.
In the case of `CC[C@H](C)[C@H](NC(=O)[C@H](CCCNC(=N)N)NC(=O)[C@H](C)NC(=O)[C@H](CC(C)C)NC(=O)[C@@H](N)CCCNC(=N)N)C(=O)N[C@H](C(=O)N[C@H](C(=O)N[C@H](C(=O)N[C@@H](CCCNC(=N)N)C(=O)N[C@H](C(=O)N[C@@H](CCCNC(=N)N)C(=O)N[C@@H](CCCNC(=N)N)C(N)=O)C(C)C)[C@@H](C)CC)C(C)C)C(C)C` [Peptide E3] (H-RLARIVVIRVRR-NH2; N-terminus assumed), the “% Biofilm Inhibition Pa” value in experiment [2] (Pa) biofilm, 10 μg/ml) is listed as 47%.
For `CC[C@H](C)[C@H](NC(=O)[C@H](C)N)C(=O)N[C@@H](CCCNC(=N)N)C(=O)N[C@H](C(=O)N[C@H](C(=O)N[C@@H](CCCNC(=N)N)C(=O)N[C@@H](C)C(=O)N[C@@H](CCCNC(=N)N)C(=O)N[C@@H](CC(C)C)C(=O)N[C@H](C(=O)N[C@@H](CCCNC(=N)N)C(=O)N[C@@H](CCCNC(=N)N)C(N)=O)C(C)C)C(C)C)C(C)C` [Peptide 1009] (H-AIRVVRARLVRR-NH2; N-terminus assumed), the “% Biofilm Inhibition Pa” value in experiment [2] (Pa) biofilm, 10 μg/ml) was 54%.
Consider VRRIWRR (VRRIWRR-NH2) [EH1], for which, in experiment [1], the “Notes (IDR immunomodulatory activity)” value is on record as “Weaker activity than 1018”.

The values are drawn from patent US20190315823A1, “SMALL CATIONIC ANTI-BIOFILM AND IDR PEPTIDES” (priority 2013, published 2019).
